Patent publication US7763286B2, “Composition comprising an extract of Tiarella polyphylla and tiarellic acid isolated therefrom having antiinflammatory, antiallergic and antiasthmatic activity” (Korea Research Institute of Bioscience and Biotechnology, priority 2005, dated 2010)
Like-named read-outs stand apart in the source and are kept apart here.

Key:
[1] = system: OVA-induced asthmatic mice; assay: Airway hyperresponsiveness (AHR), whole-body plethysmography, OVA-induced asthmatic mice; format: in vivo; conditions: for Penh value: tiarellic acid and zileuton 30 mg/ml, po; for Penh value / AHR compared with OVA-treated group: OVA-challenged mice, in words
Description: Groups of mice (n=5-6) were studied; they received the following treatment: (1) sham-sensitization plus challenge with phosphate-buffered saline (PBS; ipNeb); (2) sensitization plus challenge with OVA (ovalbumin: Sigma A5503; Sigma, St. Louis, Mo.) (ipNeb); (3) sensitization with OVA (ip) plus challenge with OVA (Neb) and samples ([…] or zileuton, po). Briefly, mice were sensitized with intraperitoneal injection of 20 μg OVA, which was emulsified with 2 mg of aluminum hydroxide in 100 μl of PBS buffer (pH 7.4) on days 0 and 11. The mice were challenged through the airways with OVA (1% in PBS) for 20 min using an ultrasonic nubuilizer (NE-U12; Omron Corp., Tokyo, Japan) on days 19, 20, 21 and 25 after the initial sensitization. The mice were sacrificed 48 hours after the last challenge (day 27) to determine the suppressive effect of extract of T. polyphylla and […] on the airways of allergic asthma. 24 hours after the final aerosol challenge AHR was measured by using a whole-body plethysmography (OCP3000; Allmedicus, Korea)(Hamelmann E et al., Am J Respir Crit. Care Med., 156, pp 766-775, 1997). […] Bronchoconstriction was recorded for additional 5 mins at each concentration. The highest Penh value of each sample was obtained during each methacholine challenge, and expressed as a percentage of a basal Penh value in response to control (PBS) challenge.

[2] = system: OVA-induced mice; assay: OVA-induced inflammation in lung tissue (H&E histology, inflammation score); format: in vivo
Description: Groups of mice (n=5-6) were studied; they received the following treatment: (1) sham-sensitization plus challenge with phosphate-buffered saline (PBS; ipNeb); (2) sensitization plus challenge with OVA (ovalbumin: Sigma A5503; Sigma, St. Louis, Mo.) (ipNeb); (3) sensitization with OVA (ip) plus challenge with OVA (Neb) and samples (tiarellic acid or zileuton, po). Briefly, mice were sensitized with intraperitoneal injection of 20 μg OVA, which was emulsified with 2 mg of aluminum hydroxide in 100 μl of PBS buffer (pH 7.4) on days 0 and 11. […]
The lung tissue was fixed for 24 hours on 10% neutral-buffered formalin. […] The degree of cell infiltration in the airway was scored in a double-blind test performed by two independent investigators (Myou S et al., J. Exp. Med., 198, pp 1573-1582, 2003). The peri-bronchiole and peri-vascular inflammation was evaluated by specific standard, i.e., scoring of 0-3, 0, no cells; 1, a few cells; 2, a ring of cells 1 to 5 cell-layer deep; 3, a thick ring of cells more than 5 cell-layer deep. To evaluate the suppressive effect of T. polyphylla extract and tiarellic acid on the leukocyte infiltration, the degree of inflammation was scored by quantitative analysis in lung tissues 48 hours after the last challenge (See FIG. 2).

[3] = system: IL-4; assay: IL-4 level in BALF of OVA-induced asthmatic mice (ELISA); format: in vivo; conditions: 30 mg/ml; for IL-4: 48 hours after last challenge; for inhibition at 30000 µg/mL: Mus musculus, vs OVA-control
Description: (§1) Groups of mice (n=5-6) were studied; they received the following treatment: (1) sham-sensitization plus challenge with phosphate-buffered saline (PBS; ipNeb); (2) sensitization plus challenge with OVA (ovalbumin: Sigma A5503; Sigma, St. Louis, Mo.) (ipNeb); (3) sensitization with OVA (ip) plus challenge with OVA (Neb) and samples (tiarellic acid or zileuton, po). Briefly, mice were sensitized with intraperitoneal injection of 20 μg OVA, which was emulsified with 2 mg of aluminum hydroxide in 100 μl of PBS buffer (pH 7.4) on days 0 and 11. The mice were challenged through the airways with OVA (1% in PBS) for 20 min using an ultrasonic nubuilizer (NE-U12; Omron Corp., Tokyo, Japan) on days 19, 20, 21 and 25 after the initial sensitization. The mice were sacrificed 48 hours after the last challenge (day 27) to determine the suppressive effect of extract of T. polyphylla and tiarellic acid on the airways of allergic asthma.
(§2) 48 hours after the last challenge, the mice were sacrificed with an overdose of pentobarbital (Sigma P3761), and a tracheotomy was performed. After ice-cold PBS (0.5 ml) was instilled into the lungs, bronchoalveolar lavage fluid (BALF) was obtained by aspiration three times (total 1.5 ml) via tracheal cannulation. BALF was centrifuged and supernatants were collected and stored at −70° C. before use. The amount of IL-4, IL-5 and IL-13 in BALF was measured by a specific mouse ELISA kit (R&D Systems; Minneapolis, Minn.) according to the manufacturer's instructions. The detection limit of the assays was 250 pg/ml.
(§3) To determine the effect of extract of T. polyphylla and tiarellic acid on the cytokine release in the OVA-induced asthmatic mice, 48 hours after the last challenge, the levels of cytokines (IL-4, IL-5 and IL-13) in BALF were measured by using ELISA method.

[4] = system: LTC4 release; assay: LTC4 release from SCF-stimulated bone marrow-derived mast cells (BMMC), enzyme immunoassay; format: cell-based, Balb/c mice; conditions: Mus musculus, SCF 100 ng/ml stimulation, read-out: LTC4 release inhibition (IC50)
Description: BMMC were obtained from male Balb/c mice and cultured for up to 4 weeks in 50% enriched medium (RPMI containing 2 mM L-glutamine, 25 mM HEPES buffer, 2 mg/ml sodium bicarbonate, 100 units/ml penicillin G, 100 μg/ml streptomycin sulfate, 0.25 μg/ml amphotericin B) supplemented with 10% fetal bovine serum with IL-3 (Sigma I4144, 2 ng/ml) (Murakami M et al., J. Bio. Chem., 39, pp 22653-22656, 1995). 3 weeks after the culture, more than 98% of BMMC was found in the cells as assessed by staining method with toluidine blue.
BMMC were suspended in the enriched medium at the cell density of 1×10^6 cells/ml, and were then incubated in a humidified 5% CO2 incubator with or without sample in DMSO (final DMSO concentration was less than 0.5%) for 30 min at 37° C. After the stimulation with stem cell factor (SCF, Sigma S9915, 100 ng/ml) for 20 min, the LTC4 release in supernatants was measured by an enzyme immunoassay kit (Cayman Chemical, Ann Arbor, Mich., U.S.A.) according to the manufacturer's instructions. All the experiments were carried out in triplicate and the inhibition of LTC4 release was determined by calculating % reduction of LTC4 release from the control (Lee S H et al., Biol. Pharm. Bull., 27, pp 786-788, 2004). […]

[5] = system: IL-5; assay: IL-5 level in BALF of OVA-induced asthmatic mice (ELISA); format: in vivo; conditions: 30 mg/ml; for IL-5: 48 hours after last challenge; for inhibition at 30000 µg/mL: Mus musculus, vs OVA-control
Description: as §1, §2, §3

[6] = system: IL-13; assay: IL-13 level in BALF of OVA-induced asthmatic mice (ELISA); format: in vivo; conditions: 30 mg/ml; for IL-13: 48 hours after last challenge; for inhibition at 30000 µg/mL: Mus musculus, vs OVA-control
Description: as §1, §2, §3

[7] = system: HL-60 cells; conditions: human, 4 h
Description: Promyelotic HL-60 cells (HL-18103, 5×10^5 cells/ml) were seeded on 96-well plates under NGF-free condition. […] 4 hours later, MTT was removed and 100 μl of DMSO was dropped into each well to dissolve crystals. UV absorbance was measured by microplate reader (BIO-RAD, U.S.A.) at 570 nm to calculate the cell viability.

[8] = system: ICR rat; assay: Carageenan-induced rat-paw edema; format: in vivo; conditions: for The thickness ratio of ankle (%) / inhibition at 50 mg/kg: 50 mg/kg; for inhibition at 50 mg/kg: Rattus norvegicus, paw edema
Description: The inhibiting activity of the extract of T. polyphylla and […] prepared from the above Examples on the edema formation in ICR rat was determined as follows. The mice were divided into three groups consisting of 6 rats for each group, i.e., T1 treated with only solvent as a negative control group, T2 treated with 50 mg/kg of the extract of T. polyphylla, T3 treated with 50 mg/kg of aspirin respectively. 1 hour after the treatment, 1% […] solution was injected into inner rat ankle to induce edema and the thickness of ankle was measured by Vernier's caliper to determine the degree of the edema. The determined thickness was calculated by following Math Fig. 1. The thickness ratio of ankle(%)=[(maximum thickness of rat paw edema)-(the thickness of pre-treated rat paw edema)/(the thickness of pre-treated rat paw edema)]×100 MathFigure 1

[9] = system: OVA-specific IgE; assay: OVA-specific IgE in plasma of OVA-induced asthmatic mice (ELISA); format: in vivo; conditions: Mus musculus, 48 hours after last challenge, 30 mg/ml, vs OVA-control
Description: as §1, with “The mice were sacrificed 48 hours after the last challenge (day 27) to determine the suppressive effect of extract of T. polyphylla and tiarellic acid on the airways of allergic asthma.” left out
48 hours after the last challenge, the mice were sacrificed with an overdose of pentobarbital (Sigma P3761), and a tracheotomy was performed. […] The amount of IL-4, IL-5 and IL-13 in BALF was measured by a specific mouse ELISA kit (R&D Systems; Minneapolis, Minn.) according to the manufacturer's instructions. […]
Plasma was obtained by cardiac puncture after the tracheotomy. […] IgE levels in each sample were measured the optical density readings at 450 nm, and OVA-specific IgE concentrations were calculated from a standard curve, which was generated in case recombinant IgE (5-2,000 ng/ml) was used.

Compound | Penh value ([1]; Metacholine 0 mg/ml) | Penh value ([1]; Metacholine 5 mg/ml) | Penh value ([1]; Metacholine 10 mg/ml) | Penh value ([1]; Metacholine 20 mg/ml) | Penh value / AHR compared with OVA-treated group [1] | IL-4 [3] | inhibition at 30000 µg/mL [3] | IC50 [4] | IL-5 [5] | inhibition at 30000 µg/mL [5] | IL-13 [6] | inhibition at 30000 µg/mL [6] | inhibition at 30000 µg/mL [9] | further results
C=C(C)[C@@H]1CC[C@]2(C)CC[C@]3(C(=O)O)C(CCC4[C@@]5(C)CC[C@H](O)[C@@](C)(CO)C5CC[C@]43C)C12 (some centres unmarked) [Tiarellic acid, tiarellic acid] | 0.46 ± 0.08 | 0.96 ± 0.45 | 1.54 ± 0.74 | 2.15 ± 0.52 | significantly reduced | 33.8 ± 14.3 pg/mL | 90.5 ± 4% | 2490 nM | 81.9 ± 41.4 pg/mL | 54.6 ± 23% | 81.7 ± 40.9 pg/mL | 43.7 ± 28.2% | 48.8% | infiltration of eosinophil-rich leukocytes ([2]; H&E staining of lung tissues, compared with OVA-treated mice): significantly attenuated; suppressive effect on the inflammation in the lung tissues ([2]; OVA-induced mice, 48 hours after last challenge): most potent suppressive effect; Cell viability (%) ([7]; 50 μM): 100%; Cell viability (%) ([7]; 100 μM): 102%; inhibition effect on rat paw edema ([8]; in words): potent inhibition effect
CC(=O)Oc1ccccc1C(=O)O [aspirin] | – | – | – | – | – | – | – | – | – | – | – | – | – | The thickness ratio of ankle (%) ([8]; 1 hr): 139.3 ± 40.6%; The thickness ratio of ankle (%) ([8]; 2 hr): 170.4 ± 34.5%; The thickness ratio of ankle (%) ([8]; 3 hr): 180.6 ± 28.6%; The thickness ratio of ankle (%) ([8]; 4 hr): 196.9 ± 15.4%; The thickness ratio of ankle (%) ([8]; 5 hr): 198.5 ± 12.6%; inhibition at 50 mg/kg ([8]; 1 hr): -16.8 ± 34%; inhibition at 50 mg/kg ([8]; 2 hr): -7.8 ± 21.8%; inhibition at 50 mg/kg ([8]; 3 hr): 7.3 ± 14.7%; inhibition at 50 mg/kg ([8]; 4 hr): 4.3 ± 7.5%; inhibition at 50 mg/kg ([8]; 5 hr): 1.5 ± 6.3%
CC(c1cc2ccccc2s1)N(O)C(N)=O (centres unmarked) [zileuton] | 0.55 ± 0.14 | 1.17 ± 0.59 | 1.97 ± 0.83 | 2.49 ± 0.90 | showed a decrease of AHR but less than tiarellic acid | 289.5 ± 59.0 pg/mL | 18.7% | 110 nM | 157.8 ± 41.3 pg/mL | 12.5% | 130.1 ± 16.8 pg/mL | 10.3% | 45.8% | –
